The values that follow come from patent US12404246B1, “2-aminomethylimidazole mimics of NS4A and their effect thereof on hepatitis C virus NS3 protease” (King Abdulaziz University, priority 2024, dated 2025).

Assay [1] concerns the target T1, HCV NS3 domain of genotype 4a (Hepatitis C virus genotype 4a, UniProt O39929).
T1 construct: NS3 protease domain 1-181 aa+N-terminal T7 tag and C-terminal His tag; T7 tag (N); made in house; host or cells: E. coli Rosette (DE3) pLysS
Put plainly: Binding assay by Differential Static Light Scattering (DSLS): aggregation temperature of NS3. To be noted: for ΔTagg (aggregation temperature shift of NS3): NS3 domain 15.0 μM with equimolar compound, shift against NS3 alone. The source says: In an embodiment, DSLS (Senisterra, Markin et al. 2006) is a preferred method to compare the relative binding potency for binding of a compound of Formula I with HCV NS3. DSLS measure the proteins aggregation temperature (Tagg) as an indicator of its stability (Davis, Walker et al. 2010). It is known that the binding of small molecules to proteins causes shifts of the aggregation temperature (ΔTagg) to higher temperature (Shahul Hameed, Haider et al. 2018). One aspect of this invention is using ΔTagg determination as a method to determine the potency of binding of compounds belonging to formula I to the HCV NS3 protease, in comparison to the native NS4A.
The NS3 domain (15.0 μM), alone or mixed with an equimolar equivalent of tested compound or the NS4A, was added to a binding buffer (20.0 mM HEPES, 10.0 mM DTT, 200 mM NaCl, pH 7.60) to a final volume 100 μL. The mixture was incubated at room temperature with gentle shaking for 2 h. Afterwards, 10 μL of the mixture was transferred into a clear bottomed Nunc 384-well plate and covered by 10 μL paraffin oil to minimize evaporation. Protein aggregation was monitored by tracking the change in scattered light that was detected by a charged coupled device (CCD) camera. Snapshot images of the plate were taken every 0.5° C. The pixel intensities in a preselected region of each well were integrated using image analysis software to generate a value representative of the total amount of scattered light in that region. These intensities were then plotted against temperature for each sample well and fitted to obtain the aggregation temperature (Tagg). Aggregation was monitored and analyzed to assess the effect of NS4A and its synthetic analogues on the stability of the NS3 as an indicator of binding. Each experiment was repeated three times (Triplicate). Statistical analysis was performed using GraphPad Prism v. 8.0® and Instat® v. 3.10 software. The Tagg for the compound was only considered if its […] of the calculated Tagg value.
Each experiment was run as triplicate (Experiment 1, 2 and 3) and the standard deviations (ST.DEV.) were calculated. (results table FIG. 31).

The next assay deals with HCV NS3 (Hepatitis C virus genotype 4a, UniProt O39929). The note with it: mixed with a substrate peptide; cited from earlier work.

For `CNC(=O)CNC(=O)c1cnc(CNCCNC(C)=O)[nH]1` [Comp 8, 2-(((2-acetamidoethyl)amino)methyl)-N-(2-(methylamino)-2-oxoethyl)-1H-imidazole-5-carboxamide], the “ΔTagg (aggregation temperature shift of NS3)” value in assay [1] was 0.48 °C.
In the case of `CC(=O)NCCNCc1nc(C(=O)NCc2ccccn2)c[nH]1` [Comp 13, 2-(((2-acetamidoethyl)amino)methyl)-N-(pyridin-2-ylmethyl)-1H-imidazole-5-carboxamide], in assay [1] (DSLS, FIG. 30-32), the “affinity towards the HCV NS3 protein compared to the native viral peptide cofactor NS4A” value was “equal or higher affinity”. In addition, in assay [1], the “ΔTagg (aggregation temperature shift of NS3)” value turned out to be 1.35 °C. Further, the “Tagg (aggregation temperature of NS3 mixed with the substance)” value in assay [1] (NS3 domain 15.0 μM with equimolar substance, incubated 2 h, triplicate, NS3 alone Tagg 43.22° C.) was 44.40 °C. Further, the “ΔTagg higher than that of the HCV NS4A” value in assay [1] (relative to the shift caused by NS4A) worked out at 14%.
On to `CC(C)CCCCCNCc1ncc(C(=O)NCc2ccccn2)[nH]1` [Comp 12, 2-(((6-methylheptyl)amino)methyl)-N-(pyridin-2-ylmethyl)-1H-imidazole-5-carboxamide], for which the “ΔTagg (aggregation temperature shift of NS3)” value in assay [1] was found to be 0.57 °C.
Still for that read-out and setting: then `O=C(NCc1ccccn1)c1cnc(CNCCOC2CCCCC2)[nH]1` [Comp 10, 2-(((2-(cyclohexyloxy)ethyl)amino)methyl)-N-(pyridin-2-ylmethyl)-1H-imidazole-5-carboxamide], with 0.43 °C; and `CCCCCCNCc1nc(C(=O)NCc2ccccn2)c[nH]1` [Comp 9, 2-((hexylamino)methyl)-N-(pyridin-2-ylmethyl)-1H-imidazole-4-carboxamide], with 0.91 °C; and `CCCCCCNCc1ncc(C(=O)NCc2ccccn2)[nH]1` [Comp 3, 2-((hexylamino)methyl)-N-(pyridin-2-ylmethyl)-1H-imidazole-5-carboxamide], with 0.47 °C.
For `CCCCCCNC(=O)c1ncc(C(=O)NCCCCNC(=N)N)[nH]1` [N5-(4-guanidinobutyl)-N2-n-hexyl-1H-imidazole-2,5-dicarboxamide], on HCV NS3, the “inhibition of HCV NS3 protease function” value is given as “able to inhibit the HCV NS3 from functioning as a protease”.
